From ChEMBL document CHEMBL3508693 (2016) come the findings set out here.

A short description of data set [1]: %Unchanged aliskiren in urine following 10 day repeated oral administration of [14C] aliskiren hemifumarate at 100 mg.Kg-1 level studied in rat. It is filed as ADME, organism-based, Albino HAN:WIST. The settings on record: in vivo, 240 h.
The next data set has as its target T1, CYP2A6 (Homo sapiens, UniProt P11509).
T1 sequence (P11509 whole entry): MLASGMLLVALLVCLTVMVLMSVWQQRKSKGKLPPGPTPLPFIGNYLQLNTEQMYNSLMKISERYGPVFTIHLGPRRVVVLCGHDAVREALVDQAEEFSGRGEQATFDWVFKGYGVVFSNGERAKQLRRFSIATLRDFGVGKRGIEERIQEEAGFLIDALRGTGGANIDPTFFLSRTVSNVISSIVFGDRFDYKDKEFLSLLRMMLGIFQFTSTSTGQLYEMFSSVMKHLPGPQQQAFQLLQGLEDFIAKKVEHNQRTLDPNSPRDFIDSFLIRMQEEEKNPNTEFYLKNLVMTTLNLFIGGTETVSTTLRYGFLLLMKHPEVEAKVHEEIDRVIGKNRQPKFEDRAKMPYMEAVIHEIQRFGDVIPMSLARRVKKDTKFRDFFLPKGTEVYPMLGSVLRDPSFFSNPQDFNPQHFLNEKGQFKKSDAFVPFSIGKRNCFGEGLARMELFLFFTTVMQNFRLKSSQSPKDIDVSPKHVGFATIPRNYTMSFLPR
Briefly: Inhibitory activity of 200 uM SPP100 on 37 Pmoles of cDNA-derived CYP2A6 enzyme in microsome prepared from human lymphoblastoid cell line. Type of data set: ADME, microsomes. Further details: conc 200 uM, interact cpd conc 3 uM. As to conditions: probe coumarine.

The next data set addresses CYP2C19 (Homo sapiens, UniProt P33261). Kind of data set: Inhibitory activity of 20 uM SPP100 on 1214 Pmoles of cDNA-derived CYP2C19 enzyme in microsome prepared from human lymphoblastoid cell line. Type of data set: ADME, microsomes. Details: conc 20 uM, interact cpd conc 50 uM. As to conditions: probe (S)-mephenytoin (50 uM).
Data set [2] in a line: % SPP100 (0-72h) recovered in faeces following single oral dose of [14C] aliskiren hemifumarate at 3 mg.Kg-1 level in marmoset. Type of data set: ADME, organism-based, Callithrix jacchus, Feces. As to conditions: in vivo.
The target of another data set is T2, Cytochrome P450 4A11 (Homo sapiens, UniProt Q02928).
T2 sequence (Q02928 whole entry): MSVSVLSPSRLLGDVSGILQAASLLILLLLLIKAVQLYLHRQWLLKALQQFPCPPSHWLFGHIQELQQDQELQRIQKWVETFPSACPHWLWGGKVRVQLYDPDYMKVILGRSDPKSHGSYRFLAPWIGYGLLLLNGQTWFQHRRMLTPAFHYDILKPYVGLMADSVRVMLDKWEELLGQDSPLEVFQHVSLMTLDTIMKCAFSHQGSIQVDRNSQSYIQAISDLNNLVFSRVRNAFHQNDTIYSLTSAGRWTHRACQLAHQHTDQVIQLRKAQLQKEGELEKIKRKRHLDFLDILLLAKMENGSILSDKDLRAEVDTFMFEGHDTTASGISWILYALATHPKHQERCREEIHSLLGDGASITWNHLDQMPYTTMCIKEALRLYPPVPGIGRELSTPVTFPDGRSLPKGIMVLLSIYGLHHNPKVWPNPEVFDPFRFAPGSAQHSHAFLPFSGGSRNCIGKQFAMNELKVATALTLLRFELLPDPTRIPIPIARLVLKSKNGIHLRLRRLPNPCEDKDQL
Briefly: Metabolic clearance (ul.min.nmol-1 CYP) of aliskiren hemifumarate for CYP4A11 was determined in human liver microsome incubated with [14C]SPP100 hemifumarate. Type of data set: ADME. The settings on record: microsomes. On the technique in general: Liver microsomes are a subcellular fraction often used to study metabolism.

The nature of data set [3]: Plasma concentration of [14C] aliskiren hemifumarate in first 4h following single intravenous […] dose of [14C] aliskiren hemifumarate at 10 mg.Kg-1 level in mouse. The settings on record: in vivo. Type of data set: ADME, organism-based, TgRasH2.
The nature of data set [4]: Apparent terminal half-life (0-168h) of total radioactivity following single intravenous administration of [14C] aliskiren hemifumarate at 1 mg.Kg-1 level in marmoset. Type of data set: ADME, organism-based, Callithrix jacchus, Plasma. The settings on record: in vivo.
A short description of data set [5]: Cmax normalised (0-168h) of total radioactivity following single intravenous administration of [14C] aliskiren hemifumarate at 1 mg.Kg-1 level in marmoset. It is filed as ADME, organism-based, Callithrix jacchus, Plasma. As to conditions: in vivo.
A short description of data set [6]: Excretion of radioactivity (24-48h) in urine following single oral dose of 100 mg.Kg-1 [14C] aliskiren hemifumarate in rat. It is filed as ADME, organism-based, Albino HAN:WIST. As to conditions: in vivo.
A short description of data set [7]: Mean excretion of radioactivity (24-48h) in urine and faeces following single intravenous dose of 10 mg.Kg-1 [14C] aliskiren hemifumarate in rat. The settings on record: in vivo. Type of data set: ADME, organism-based, Albino HAN:WIST, Urine/Feces.
Data set [8] can be described thus: Cmax (0-168h) of total radioactivity following single oral administration of [14C] aliskiren hemifumarate at 3 mg.Kg-1 level in marmoset. Type of data set: ADME, organism-based, Callithrix jacchus, Plasma. The settings on record: in vivo.
Data set [9] is described as follows: Apparent Km value of metabolism of [14C] aliskiren hemifumarate studied in human liver microsome. Type of data set: ADME. The settings on record: microsomes.
A short description of data set [10]: Concentration of radioactivity in the kidney medulla following repeated oral administration of [14C] aliskiren hemifumarate at 100 mg.Kg-1 level studied at 24h after 7th dose in rat. Type of data set: ADME, organism-based, Albino HAN:WIST, Renal medulla. The settings on record: in vivo.
The nature of data set [11]: Concentration of radioactivity in the colon wall following repeated oral administration of [14C] aliskiren hemifumarate at 100 mg.Kg-1 level studied at 24h after 3rd dose in rat. As to conditions: in vivo. It is filed as ADME, organism-based, Albino HAN:WIST.
Data set [12] in a line: t1/2 of aliskiren hemifumarate following 2 week oral dosing of aliskiren hemifumarate at 50 mg.Kg-1 level studied on day 1 in male Callithrix jacchus. It is filed as ADME, organism-based. As to conditions: marmoset, plasma.
Data set [13] can be described thus: Cmaxspec of aliskiren hemifumarate following 2 week oral dosing of aliskiren hemifumarate at 100 mg.Kg-1 level studied on day 14 in male Callithrix jacchus. Type of data set: ADME, organism-based, Plasma. As to conditions: marmoset, in vivo, 336 h.
A short description of data set [14]: Effect of 2 week oral dosing of aliskiren hemifumarate at 100 mg.Kg-1 level on plasma alkaline phosphatase level in female Callithrix jacchus. It is filed as toxicity, organism-based. As to conditions: marmoset, 336 h.
Data set [15] in a line: Cmax of aliskiren hemifumarate following 2 week oral dosing of aliskiren hemifumarate at 50 mg.Kg-1 level studied on day 1 in female Callithrix jacchus. It is filed as ADME, organism-based. As to conditions: marmoset, plasma.
The nature of data set [16]: Tmax of unlabeled aliskiren hemifumarate following single intravenous dose of aliskiren hemifumarate at 10 mg.Kg-1 level in mouse. Type of data set: ADME, organism-based. The settings on record: TgRasH2, mouse, plasma.
The nature of data set [17]: Cmax of aliskiren hemifumarate following 2 week oral dosing of aliskiren hemifumarate at 100 mg.Kg-1 level studied on day 14 in male Callithrix jacchus. Type of data set: ADME, organism-based. The settings on record: marmoset, plasma.
The nature of data set [18]: Cmaxspec of aliskiren hemifumarate following 2 week oral dosing of aliskiren hemifumarate at 50 mg.Kg-1 level studied on day 14 in male Callithrix jacchus. It is filed as ADME, organism-based, Plasma. As to conditions: marmoset, in vivo, 336 h.
Data set [19] is described as follows: AUC (0-96h) of unlabeled aliskiren hemifumarate following oral administration of aliskiren hemifumarate at 100 mg.Kg-1 level in rat. It is filed as ADME, organism-based. The settings on record: Albino HAN:WIST, plasma.
Data set [20] is described as follows: Cmax of aliskiren hemifumarate following 4 week oral dietary dosing of aliskiren hemifumarate at 1500 mg.Kg-1 level in male mouse. Type of data set: ADME, organism-based. The settings on record: CB6F1-TGrasH2, mouse, in vivo.
Data set [21] is described as follows: Cmaxspec of aliskiren hemifumarate following 2 week oral dosing of aliskiren hemifumarate at 10 mg.Kg-1 level studied on […] in male Callithrix jacchus. Type of data set: ADME, organism-based, Plasma. As to conditions: marmoset, in vivo, 336 h.
Data set [22] can be described thus: Tmax of aliskiren hemifumarate following 2 week oral dosing of aliskiren hemifumarate at 50 mg.Kg-1 level studied on day 1 in female Callithrix jacchus. It is filed as ADME, organism-based. The settings on record: marmoset, plasma.
Data set [23] can be described thus: AUC infinity of aliskiren hemifumarate following 2 week oral dosing of aliskiren hemifumarate at 100 mg.Kg-1 level studied on day 1 in male Callithrix jacchus. The settings on record: marmoset, plasma, read-out: AUC infinity. It is filed as ADME, organism-based.
Data set [24] can be described thus: Tmax of aliskiren hemifumarate following 4 week oral dietary dosing of aliskiren hemifumarate at 500 mg.Kg-1 level in female mouse. It is filed as ADME, organism-based. The settings on record: CB6F1-TGrasH2, mouse, in vivo.

Chain of CYP2C19 (P33261 whole entry): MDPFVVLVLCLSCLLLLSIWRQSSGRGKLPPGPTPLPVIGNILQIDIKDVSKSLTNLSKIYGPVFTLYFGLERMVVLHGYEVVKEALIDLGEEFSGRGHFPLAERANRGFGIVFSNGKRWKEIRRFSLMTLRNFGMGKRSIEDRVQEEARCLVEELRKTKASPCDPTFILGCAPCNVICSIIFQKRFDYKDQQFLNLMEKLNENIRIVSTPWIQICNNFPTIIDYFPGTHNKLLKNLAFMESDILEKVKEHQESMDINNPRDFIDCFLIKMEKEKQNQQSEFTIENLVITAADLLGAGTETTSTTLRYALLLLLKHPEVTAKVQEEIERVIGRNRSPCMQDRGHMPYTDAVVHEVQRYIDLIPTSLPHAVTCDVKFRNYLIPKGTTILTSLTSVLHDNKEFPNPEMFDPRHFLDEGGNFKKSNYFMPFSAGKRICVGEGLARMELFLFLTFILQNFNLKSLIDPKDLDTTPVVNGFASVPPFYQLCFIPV

Turning to `COCCCOc1cc(C[C@@H](C[C@H](N)[C@@H](O)C[C@H](C(=O)NCC(C)(C)C(N)=O)C(C)C)C(C)C)ccc1OC`, the Compound recovery is listed as 43% in [1] and 78% in [2]. In addition, on CYP2A6, the inhibition at 200 µM came out at 2.6%. Further, at CYP2C19, the inhibition at 20 µM is -1.9%.
On to `COCCCOc1cc(C[C@@H](C[C@H](N)[C@@H](O)C[C@H](C(=O)NCC([14CH3])([14CH3])C(N)=O)C(C)C)C(C)C)ccc1OC.O=C(O)/C=C/C(=O)O`, for which, at Cytochrome P450 4A11, the CL came out at 4.9 µL·min/nmol. This compound also showed a Compound recovery in [3] of 94%. For the same compound, the t1/2 in data set [4] is 39.5 h. In addition, the Cmax normalised in data set [5] is 11.42 (umol/L)/(mg/kg). Further, the Radiolabel recovery was 0.17% in data set [6]; 28.9% in [7]; “OUTCOME = Detected” in [10]; “OUTCOME = Observed, VALUE = Highest radioactivity concentration was observed” in data set [11]. The Cmax in [8] amounted to 359 nM. The Michaelis-Menten constant (Km) in [9] was found to be 43.8 µM.
For `COCCCOc1cc(C[C@@H](C[C@H](N)[C@@H](O)C[C@H](C(=O)NCC(C)(C)C(N)=O)C(C)C)C(C)C)ccc1OC.COCCCOc1cc(C[C@@H](C[C@H](N)[C@@H](O)C[C@H](C(=O)NCC(C)(C)C(N)=O)C(C)C)C(C)C)ccc1OC.O=C(O)/C=C/C(=O)O` [ALISKIREN FUMARATE], the half-life in [12] is 7.37 h. The Cmax normalised is recorded as 0.097 (ug/ml)/(mg/kg) in data set [13], 0.246 (ug/ml)/(mg/kg) in data set [18] and 0.577 (ug/ml)/(mg/kg) in [21]. For the same compound, in data set [14], the ALP_CHANGE_TO result is “OUTCOME = 2-fold increase over initial values. No animals died during the study”. The values for the Cmax in [15], in data set [17] and in data set [20] were 8830 ng/mL, 9670 ng/mL and 363 ng/mL, respectively. The time to peak (Tmax) in data set [16] came out at 4.98 min; in data set [22] it was 1 h; in data set [24], 0 h. In [19], this compound had an AUC(0-t) at 96 h of 3.01 µM·h. Further, the AUC(0-inf) in [23] was found to be 103 µg·h/mL.

One may read the inhibition as the change of the read-out against control, counted positive when it falls. In general, Cmax refers to the maximum level reached in the sampled fluid or tissue. Broadly, the Km is the concentration of substrate that gives half-maximal velocity. In general, half-life refers to the time in which the quantity being followed falls by half. One may read the Tmax as the time from dosing to the highest level. Broadly, the AUC(0-t) is the area under the concentration-time curve up to a stated or last time point. Lower therefore signals less exposure.
